Reference: PubChem BioAssay AID256 (DTP/NCI, 2004)
“And” between values parts separate entries of the source, which are not always exact repeats. Equal entries are not always repeated. Inconclusive results and toxic doses are left out. The calls were made as follows: active = survival T/C of 150% or more; inactive = T/C below 125% in these data.

Tested on: CD2F1 mice, L1210 leukemia ip, survival T/C
Assay: NCI In Vivo Anticancer Drug Screen. Data for tumor model L1210 Leukemia (intraperitoneal) in CD2F1 (CDF1) mice
Conditions: higher = longer survival
Procedure, shortened: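 Tumor-bearing mice (transplanted tumor) were split into treated and vehicle control groups, and the measured endpoint of each treated group was divided by that of its vehicle controls.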

[1] = endpoint: mean survival time, dose: 50.0 mg/kg/injection, schedule: Q01DX009 (ip), vehicle: saline with Tween-80
[2] = endpoint: mean survival time, dose: 100.0 mg/kg/injection, schedule: Q01DX009 (ip), vehicle: saline with Tween-80
[3] = endpoint: mean survival time, dose: 100.0 mg/kg/injection, schedule: Q04DX003 (ip), vehicle: saline with Tween-80
[4] = endpoint: mean survival time, dose: 200.0 mg/kg/injection, schedule: Q04DX002 (ip), vehicle: saline with Tween-80
[5] = endpoint: mean survival time, dose: 200.0 mg/kg/injection, schedule: Q04DX003 (ip), vehicle: saline with Tween-80
[6] = endpoint: mean survival time, dose: 400.0 mg/kg/injection, schedule: Q04DX002 (ip), vehicle: saline with Tween-80
[7] = endpoint: mean survival time, dose: 400.0 mg/kg/injection, schedule: Q04DX003 (ip), vehicle: saline with Tween-80
[8] = endpoint: mean survival time, dose: 12.5 mg/kg/injection, schedule: Q04DX003 (ip), vehicle: saline
[9] = endpoint: mean survival time, dose: 100.0 mg/kg/injection, schedule: Q04DX003 (ip), vehicle: saline
[10] = endpoint: mean survival time, dose: 200.0 mg/kg/injection, schedule: Q01DX009 (ip), vehicle: saline with Tween-80

Measured: T/C

C[N+](C)(C)CC1CCCC1
inactive: endpoint: mean survival time, dose: 5.0 mg/kg/injection, schedule: Q01DX001 (ip), vehicle: saline 97 % of control | endpoint: mean survival time, dose: 10.0 mg/kg/injection, schedule: Q01DX001 (ip), vehicle: saline 102 % of control | endpoint: mean survival time, dose: 20.0 mg/kg/injection, schedule: Q01DX001 (ip), vehicle: saline 103 % of control | endpoint: mean survival time, dose: 40.0 mg/kg/injection, schedule: Q01DX001 (ip), vehicle: saline 103 % of control

CCCOC(=O)c1ccc(NC(=O)Nc2ccc(C(=O)OCC)cc2)cc1
inactive: endpoint: mean survival time, dose: 25.0 mg/kg/injection, schedule: Q01DX001 (ip), vehicle: saline with Tween-80 96 % of control | endpoint: mean survival time, dose: 25.0 mg/kg/injection, schedule: Q01DX009 (ip), vehicle: saline with Tween-80 88 % of control | endpoint: mean survival time, dose: 25.0 mg/kg/injection, schedule: Q04DX002 (ip), vehicle: saline with Tween-80 92 % of control and 95 % of control | endpoint: mean survival time, dose: 25.0 mg/kg/injection, schedule: Q04DX003 (ip), vehicle: saline with Tween-80 102 % of control | endpoint: mean survival time, dose: 50.0 mg/kg/injection, schedule: Q01DX001 (ip), vehicle: saline with Tween-80 93 % of control | [1] 88 % of control and 94 % of control | endpoint: mean survival time, dose: 50.0 mg/kg/injection, schedule: Q04DX002 (ip), vehicle: saline with Tween-80 92 % of control and 98 % of control | endpoint: mean survival time, dose: 50.0 mg/kg/injection, schedule: Q04DX003 (ip), vehicle: saline with Tween-80 92 % of control | endpoint: mean survival time, dose: 100.0 mg/kg/injection, schedule: Q01DX001 (ip), vehicle: saline with Tween-80 87 % of control and 93 % of control | [2] 91 % of control and 96 % of control | [3] 91 % of control and 94 % of control | endpoint: mean survival time, dose: 200.0 mg/kg/injection, schedule: Q01DX001 (ip), vehicle: saline with Tween-80 86 % of control | [4] 90 % of control | [5] 86 % of control | [6] 90 % of control | [7] 88 % of control

CSc1cc(N)nc2c1nnn2C1OC(CO)C(O)C1O (stereo unspecified)
inactive: endpoint: mean survival time, dose: 12.5 mg/kg/injection, schedule: Q01DX005 (ip), vehicle: water 94 % of control | endpoint: mean survival time, dose: 25.0 mg/kg/injection, schedule: Q01DX005 (ip), vehicle: water 100 % of control | endpoint: mean survival time, dose: 50.0 mg/kg/injection, schedule: Q01DX005 (ip), vehicle: water 95 % of control | endpoint: mean survival time, dose: 100.0 mg/kg/injection, schedule: Q01DX005 (ip), vehicle: water 90 % of control | endpoint: mean survival time, dose: 200.0 mg/kg/injection, schedule: Q01DX005 (ip), vehicle: water 87 % of control

Nc1c2ccccc2c[n+]2ccccc12
inactive: [8] 112 % of control | endpoint: mean survival time, dose: 25.0 mg/kg/injection, schedule: Q04DX003 (ip), vehicle: saline 124 % of control | endpoint: mean survival time, dose: 50.0 mg/kg/injection, schedule: Q04DX003 (ip), vehicle: saline 114 % of control | [9] 121 % of control

Cc1c(Cl)cccc1NC(=O)/C=C/c1ccccc1
inactive: endpoint: mean survival time, dose: 100.0 mg/kg/injection, schedule: Q04DX002 (ip), vehicle: saline with Tween-80 94 % of control | [4] 102 % of control | [6] 94 % of control

O=S(=O)(/N=C1\C=CC=C\C1=N/S(=O)(=O)c1ccccc1)c1ccccc1
inactive: [2] 95 % of control | [10] 92 % of control | endpoint: mean survival time, dose: 400.0 mg/kg/injection, schedule: Q01DX009 (ip), vehicle: saline with Tween-80 98 % of control

C=C1C(=O)OC2/C=C(\CO)CC/C=C(\CO)CC(OC(=O)C(C)C)C12 (stereo unspecified)
inactive: endpoint: mean survival time, dose: 3.75 mg/kg/injection, schedule: Q01DX009 (ip), vehicle: Klucel (hydroxypropylcellulose) (HPC) 100 % of control | endpoint: mean survival time, dose: 7.5 mg/kg/injection, schedule: Q01DX009 (ip), vehicle: Klucel (hydroxypropylcellulose) (HPC) 88 % of control | endpoint: mean survival time, dose: 15.0 mg/kg/injection, schedule: Q01DX009 (ip), vehicle: Klucel (hydroxypropylcellulose) (HPC) 97 % of control | endpoint: mean survival time, dose: 30.0 mg/kg/injection, schedule: Q01DX009 (ip), vehicle: Klucel (hydroxypropylcellulose) (HPC) 105 % of control

CCCCOC(=O)C(C(=O)OCCCC)(C(=O)OCCCC)C(C(=O)OCCCC)(C(=O)OCCCC)C(=O)OCCCC
inactive: endpoint: mean survival time, dose: 100.0 mg/kg/injection, schedule: Q01DX001 (ip), vehicle: saline 90 % of control | endpoint: mean survival time, dose: 400.0 mg/kg/injection, schedule: Q01DX001 (ip), vehicle: saline 96 % of control

O=[N+]([O-])O.[In]
inactive: endpoint: mean survival time, dose: 1.25 mg/kg/injection, schedule: Q01DX009 (ip), vehicle: saline 93 % of control | endpoint: mean survival time, dose: 2.5 mg/kg/injection, schedule: Q01DX009 (ip), vehicle: saline 96 % of control | endpoint: mean survival time, dose: 5.0 mg/kg/injection, schedule: Q01DX009 (ip), vehicle: saline 95 % of control | endpoint: mean survival time, dose: 10.0 mg/kg/injection, schedule: Q01DX009 (ip), vehicle: saline 96 % of control

CC(C#N)(Nc1ccccc1)c1ccc(Cl)cc1 (stereo unspecified)
inactive: [1] 86 % of control | [10] 97 % of control | [5] 87 % of control

O=CN(O)CC(=O)O.[Cu]
inactive: endpoint: mean survival time, dose: 3.12 mg/kg/injection, schedule: Q01DX009 (ip), vehicle: acetone 95 % of control | endpoint: mean survival time, dose: 6.25 mg/kg/injection, schedule: Q01DX009 (ip), vehicle: acetone 101 % of control | [8] 100 % of control

CC(C)OC(=O)Nc1ccc(F)c(C(F)(F)F)c1
inactive: [3] 96 % of control | [5] 96 % of control | [7] 94 % of control

OC1OCC(COc2ccc(Cl)cc2)OC1O (stereo unspecified)
inactive: endpoint: median survival time, dose: 25.0 mg/kg/injection, schedule: Q01DX005 (ip), vehicle: saline with Tween-80 102 % of control | endpoint: median survival time, dose: 50.0 mg/kg/injection, schedule: Q01DX005 (ip), vehicle: saline with Tween-80 102 % of control | endpoint: median survival time, dose: 100.0 mg/kg/injection, schedule: Q01DX005 (ip), vehicle: saline with Tween-80 115 % of control | endpoint: median survival time, dose: 144.0 mg/kg/injection, schedule: Q01DX005 (ip), vehicle: saline with Tween-80 102 % of control | endpoint: median survival time, dose: 200.0 mg/kg/injection, schedule: Q01DX005 (ip), vehicle: saline with Tween-80 117 % of control | endpoint: median survival time, dose: 240.0 mg/kg/injection, schedule: Q01DX005 (ip), vehicle: saline with Tween-80 101 % of control | endpoint: median survival time, dose: 400.0 mg/kg/injection, schedule: Q01DX005 (ip), vehicle: saline with Tween-80 96 % of control

NC(N)=NCCCCC(N)C(=O)O (stereo unspecified)
inactive: endpoint: mean survival time, dose: 100.0 mg/kg/injection, schedule: Q01DX009 (ip), vehicle: acetone 101 % of control | endpoint: mean survival time, dose: 100.0 mg/kg/injection, schedule: Q01DX009 (ip), vehicle: saline 95 % of control | [9] 97 % of control | endpoint: mean survival time, dose: 200.0 mg/kg/injection, schedule: Q01DX009 (ip), vehicle: acetone 96 % of control | endpoint: mean survival time, dose: 200.0 mg/kg/injection, schedule: Q01DX009 (ip), vehicle: saline 95 % of control | endpoint: mean survival time, dose: 200.0 mg/kg/injection, schedule: Q04DX003 (ip), vehicle: saline 100 % of control | endpoint: mean survival time, dose: 400.0 mg/kg/injection, schedule: Q01DX009 (ip), vehicle: acetone 98 % of control | endpoint: mean survival time, dose: 400.0 mg/kg/injection, schedule: Q01DX009 (ip), vehicle: saline 95 % of control | endpoint: mean survival time, dose: 400.0 mg/kg/injection, schedule: Q04DX003 (ip), vehicle: saline 103 % of control

C(=N\N(c1ccccc1)c1ccccc1)/c1ccc(/C=N/N(c2ccccc2)c2ccccc2)cc1
inactive: endpoint: mean survival time, dose: 100.0 mg/kg/injection, schedule: Q04DX003 (ip), vehicle: Klucel (hydroxypropylcellulose) (HPC) 97 % of control | endpoint: mean survival time, dose: 200.0 mg/kg/injection, schedule: Q04DX003 (ip), vehicle: Klucel (hydroxypropylcellulose) (HPC) 95 % of control | endpoint: mean survival time, dose: 400.0 mg/kg/injection, schedule: Q04DX003 (ip), vehicle: Klucel (hydroxypropylcellulose) (HPC) 95 % of control

COc1ccc(/C=C(/C)C(=O)c2ccccc2)cc1
inactive: endpoint: mean survival time, dose: 100.0 mg/kg/injection, schedule: Q01DX009 (ip), vehicle: Klucel (hydroxypropylcellulose) (HPC) 97 % of control | endpoint: mean survival time, dose: 200.0 mg/kg/injection, schedule: Q01DX009 (ip), vehicle: Klucel (hydroxypropylcellulose) (HPC) 97 % of control | endpoint: mean survival time, dose: 400.0 mg/kg/injection, schedule: Q01DX009 (ip), vehicle: Klucel (hydroxypropylcellulose) (HPC) 91 % of control
